Results on 3 compounds are retold here after patent publication US20250268959A1, “COMPOSITIONS CONTAINING INDOLE-DERIVED METABOLITES AND METHODS OF USE THEREOF” (Imvela Corp., priority 2024, published 2025).

Where two headings read alike, the source gives them in different places.

The target of assay [1] is T1, AhR (Homo sapiens, UniProt P35869).
T1 sequence (P35869 11-848): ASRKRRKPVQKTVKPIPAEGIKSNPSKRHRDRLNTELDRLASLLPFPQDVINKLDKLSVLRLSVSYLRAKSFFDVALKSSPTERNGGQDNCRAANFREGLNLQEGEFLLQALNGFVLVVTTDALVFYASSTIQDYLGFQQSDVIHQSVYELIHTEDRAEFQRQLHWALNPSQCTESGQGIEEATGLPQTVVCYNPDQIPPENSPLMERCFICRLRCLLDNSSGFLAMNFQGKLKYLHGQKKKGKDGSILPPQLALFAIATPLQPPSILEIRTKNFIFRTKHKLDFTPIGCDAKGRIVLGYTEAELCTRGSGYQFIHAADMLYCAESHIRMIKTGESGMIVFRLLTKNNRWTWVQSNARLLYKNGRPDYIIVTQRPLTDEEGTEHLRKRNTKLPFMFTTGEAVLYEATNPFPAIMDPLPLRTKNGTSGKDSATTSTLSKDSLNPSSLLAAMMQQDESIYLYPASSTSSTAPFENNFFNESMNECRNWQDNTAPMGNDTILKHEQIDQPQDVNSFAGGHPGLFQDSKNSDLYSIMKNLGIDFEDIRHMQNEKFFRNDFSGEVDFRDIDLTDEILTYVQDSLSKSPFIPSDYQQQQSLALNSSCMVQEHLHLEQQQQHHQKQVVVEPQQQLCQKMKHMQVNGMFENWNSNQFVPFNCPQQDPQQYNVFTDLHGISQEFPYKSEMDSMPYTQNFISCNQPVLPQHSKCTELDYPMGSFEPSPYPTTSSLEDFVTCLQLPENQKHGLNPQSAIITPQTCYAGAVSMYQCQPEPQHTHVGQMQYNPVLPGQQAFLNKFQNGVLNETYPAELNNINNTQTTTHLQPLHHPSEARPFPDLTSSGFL
Nature of the assay: AhR activation, in vitro luminescence assay in human cell lines expressing AhR. Conditions: human cell line expressing AhR; 200 μM; normalized to methylcholanthrene (FIG. 5). The format is cell-based. How it is done:
(§1) The utility of ILA and IAld in multiple host was validated by an in vitro assay. Human or canine cell lines expressing AhR were exposed to ILA or IAld at 200 μM, and AhR activation was assayed using in vitro luminescence.

For assay [2], the target named is T2, AhR (Canis lupus familiaris, UniProt A0A8I3RSX6).
T2 sequence (A0A8I3RSX6 1-853): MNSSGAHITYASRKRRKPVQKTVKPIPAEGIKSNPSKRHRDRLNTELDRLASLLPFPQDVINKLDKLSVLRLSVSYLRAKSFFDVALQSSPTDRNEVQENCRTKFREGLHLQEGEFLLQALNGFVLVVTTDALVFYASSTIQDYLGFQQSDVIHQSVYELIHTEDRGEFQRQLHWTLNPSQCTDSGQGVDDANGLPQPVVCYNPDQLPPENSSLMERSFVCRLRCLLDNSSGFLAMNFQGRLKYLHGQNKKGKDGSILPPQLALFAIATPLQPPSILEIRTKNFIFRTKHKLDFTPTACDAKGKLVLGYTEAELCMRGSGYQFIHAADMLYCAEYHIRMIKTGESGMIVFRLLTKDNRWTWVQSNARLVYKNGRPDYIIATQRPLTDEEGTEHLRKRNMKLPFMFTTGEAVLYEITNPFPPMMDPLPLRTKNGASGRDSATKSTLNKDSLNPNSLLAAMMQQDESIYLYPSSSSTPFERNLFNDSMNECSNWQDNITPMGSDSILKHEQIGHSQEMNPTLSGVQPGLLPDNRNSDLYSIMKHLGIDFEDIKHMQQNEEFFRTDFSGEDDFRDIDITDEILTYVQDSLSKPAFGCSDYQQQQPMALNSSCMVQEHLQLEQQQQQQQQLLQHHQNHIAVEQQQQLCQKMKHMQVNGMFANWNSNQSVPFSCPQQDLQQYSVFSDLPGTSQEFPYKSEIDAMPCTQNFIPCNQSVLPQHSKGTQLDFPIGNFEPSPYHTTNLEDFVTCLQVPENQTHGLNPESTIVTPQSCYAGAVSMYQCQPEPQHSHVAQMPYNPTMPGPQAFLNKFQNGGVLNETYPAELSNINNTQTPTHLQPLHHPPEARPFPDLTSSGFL
The assay can be described thus: AhR activation, in vitro luminescence assay in canine cell lines expressing AhR. Conditions: canine cell line expressing AhR; 200 μM; normalized to methylcholanthrene (FIG. 5). The format is cell-based. How it is done:
as §1

The conditions of assay [3]: rats; IPA supplementation; over 1 week; cited from earlier work.
For assay [4] the following is noted: mice; IPA supplementation; in 2 weeks; cited from earlier work.

In the case of `O=Cc1c[nH]c2ccccc12` [IAld, indole-3-carboxaldehyde], the AhR activation entry on AhR [1] and at AhR [2] was “AhR activation was observed” throughout.

As to `O=C(O)CCc1c[nH]c2ccccc12` [IPA, indole-3-propionic acid], the “reduction of weight gain” value in assay [3] was roughly 50%; in assay [4] it was roughly 60%.

As to `O=C(O)C(O)Cc1c[nH]c2ccccc12` (stereo not drawn) [ILA, indole-3-lactic acid], the AhR activation entry on AhR [1] and at AhR [2] was “AhR activation was observed” in each case.
